Among the test systems are BT-549 breast; NCI-H226 lung; MCF7 breast; MDA-MB-435; HS 578T breast; OVCAR-8 ovarian; HCT-15 colon; UACC-257 melanoma; SNB-19 CNS; RPMI-8226 leukemia; MALME-3M melanoma; MDA-N; T-47D breast; SK-OV-3 ovarian; IGROV1 ovarian; SK-MEL-5 melanoma; HOP-62 NSCLC; HOP-92 NSCLC; HCT-116 colon; DU-145 prostate.
Experiment in all cases: NCI anticancer screen, dose series, 48 h

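Cultured in 96-well plates, cells were exposed to test compound for 48 hours across five concentrations. TGI: concentration producing complete growth inhibition.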

As for `COC(=O)/C(=N\NC(=S)NN)C(C(=O)OC)C(=O)C(=O)Nc1cccc(C(F)(F)F)c1` (stereo not drawn), the TGI with BT-549 breast, in the experiment on NCI-H226 lung, in the experiment with MCF7 breast, in the experiment with MDA-MB-435, in the experiment with HS 578T breast and in the experiment with OVCAR-8 ovarian was > 100 µM each time. The TGI with HCT-15 colon, in the experiment on UACC-257 melanoma, in the experiment on SNB-19 CNS, with RPMI-8226 leukemia, with MALME-3M melanoma and in the experiment with MDA-N was > 100 µM each time. Also, the TGI with T-47D breast, in the experiment on SK-OV-3 ovarian, in the experiment with IGROV1 ovarian, in the experiment on SK-MEL-5 melanoma, in the experiment with HOP-62 NSCLC and with HOP-92 NSCLC was > 100 µM throughout. In addition, the TGI in the experiment on HCT-116 colon was > 100 µM.
`O=c1c2cc(-c3ccccc3)cnc2sn1-c1ccc(Oc2ccccc2)cc1`: the TGI was 62.4 µM with BT-549 breast; > 100 µM with NCI-H226 lung; > 100 µM in the experiment on MCF7 breast; > 100 µM in the experiment on MDA-MB-435; > 100 µM in the experiment on OVCAR-8 ovarian; > 100 µM with HCT-15 colon. In addition, the TGI in the experiment on UACC-257 melanoma was > 100 µM; in the experiment on DU-145 prostate, > 100 µM; in the experiment on SNB-19 CNS, 54.7 µM; in the experiment on RPMI-8226 leukemia it was > 100 µM; in the experiment on MALME-3M melanoma, > 100 µM; with MDA-N, > 100 µM. Also, the TGI was > 100 µM in the experiment with T-47D breast; > 100 µM with SK-OV-3 ovarian; > 100 µM in the experiment with IGROV1 ovarian; 56.8 µM in the experiment with HOP-62 NSCLC; > 100 µM with HOP-92 NSCLC; > 100 µM with HCT-116 colon.
On to `CC1=CC(=O)C(=CN2C(=O)/C(=C\c3cccnc3)NC2=S)C(=O)O1`, for which the TGI with BT-549 breast, in the experiment with NCI-H226 lung, in the experiment on MCF7 breast, with MDA-MB-435, with OVCAR-8 ovarian and with HCT-15 colon was > 100 µM each time. The TGI with UACC-257 melanoma, in the experiment with DU-145 prostate, with SNB-19 CNS, with MDA-N, in the experiment with T-47D breast and in the experiment on SK-OV-3 ovarian was > 100 µM each time. Also, the TGI in the experiment with IGROV1 ovarian, in the experiment on SK-MEL-5 melanoma, with HOP-62 NSCLC, with HOP-92 NSCLC and in the experiment with HCT-116 colon was > 100 µM each time.
With `COC(=O)c1cnn2c1ccc1ccccc12`, the TGI with BT-549 breast, in the experiment with NCI-H226 lung, with MDA-MB-435, in the experiment with HS 578T breast, with OVCAR-8 ovarian and in the experiment on HCT-15 colon was > 100 µM throughout. The TGI with UACC-257 melanoma, with DU-145 prostate, with SNB-19 CNS, with RPMI-8226 leukemia, in the experiment with MALME-3M melanoma and in the experiment with MDA-N was > 100 µM each time. Besides, the TGI in the experiment with T-47D breast, in the experiment with SK-OV-3 ovarian, in the experiment with IGROV1 ovarian, in the experiment on SK-MEL-5 melanoma, with HOP-62 NSCLC and in the experiment with HOP-92 NSCLC was > 100 µM each time. For the same molecule, the TGI with HCT-116 colon is > 100 µM.
In the case of `CC(=O)C1=C(C)N2C(=NC3=C(CCc4ccccc43)C2c2cccc(Br)c2)S1` (stereo not drawn), the TGI with BT-549 breast, in the experiment with NCI-H226 lung, in the experiment with MCF7 breast, with MDA-MB-435, with HS 578T breast and in the experiment on OVCAR-8 ovarian was > 100 µM each time. In addition, the TGI was > 100 µM with HCT-15 colon; > 100 µM with UACC-257 melanoma; > 100 µM in the experiment with DU-145 prostate; > 100 µM in the experiment with SNB-19 CNS; 53.5 µM in the experiment on RPMI-8226 leukemia; > 100 µM with MDA-N. For the same molecule, the TGI with T-47D breast, in the experiment with SK-OV-3 ovarian, in the experiment on IGROV1 ovarian, with SK-MEL-5 melanoma, in the experiment with HOP-62 NSCLC and in the experiment on HOP-92 NSCLC was > 100 µM each time. Further, the TGI in the experiment on HCT-116 colon is > 100 µM.
As for `O=C1C2=Cc3ccccc3OC2(O)Oc2ccc(O)cc21` (stereo not drawn), the TGI in the experiment with BT-549 breast, in the experiment with NCI-H226 lung, in the experiment with MCF7 breast, with MDA-MB-435, in the experiment on OVCAR-8 ovarian and in the experiment with HCT-15 colon was > 100 µM each time. In addition, the TGI with UACC-257 melanoma, with DU-145 prostate, in the experiment on RPMI-8226 leukemia, in the experiment on MALME-3M melanoma, with MDA-N and with T-47D breast was > 100 µM in each case. The TGI with SK-OV-3 ovarian, in the experiment on IGROV1 ovarian, in the experiment on SK-MEL-5 melanoma, in the experiment on HOP-62 NSCLC, in the experiment with HOP-92 NSCLC and in the experiment on HCT-116 colon was > 100 µM throughout.
On to `C(=NCCCN1CCN(CCCN=Cc2cccc3ccccc23)CC1)c1cccc2ccccc12`, for which the TGI was 90.8 µM in the experiment on BT-549 breast; > 100 µM in the experiment with NCI-H226 lung; 96.8 µM in the experiment with MDA-MB-435; > 100 µM with HS 578T breast; > 100 µM in the experiment with OVCAR-8 ovarian; > 100 µM with HCT-15 colon. In addition, the TGI in the experiment on UACC-257 melanoma, with SNB-19 CNS, in the experiment with RPMI-8226 leukemia, with MALME-3M melanoma, with MDA-N and in the experiment on T-47D breast was > 100 µM throughout. In addition, the TGI with SK-OV-3 ovarian, with IGROV1 ovarian, in the experiment with HOP-62 NSCLC and in the experiment with HCT-116 colon was > 100 µM throughout.
As to `CC(CO)(CBr)COC(=O)c1cc(Br)c(N)c(Br)c1` (stereo not drawn), the TGI in the experiment on BT-549 breast, in the experiment on NCI-H226 lung, in the experiment on MDA-MB-435, in the experiment on OVCAR-8 ovarian, in the experiment with HCT-15 colon and with UACC-257 melanoma was > 100 µM each time. Also, the TGI with DU-145 prostate, with SNB-19 CNS, with RPMI-8226 leukemia, in the experiment with MDA-N, with T-47D breast and in the experiment on SK-OV-3 ovarian was > 100 µM each time. Moreover, the TGI was > 100 µM in the experiment with IGROV1 ovarian; > 100 µM in the experiment with SK-MEL-5 melanoma; > 100 µM in the experiment on HOP-62 NSCLC; 45.9 µM with HOP-92 NSCLC; > 100 µM in the experiment with HCT-116 colon.

Values taken from PubChem BioAssay (NCI).
